One test deals with T1, human arginase I (ARG I) (Homo sapiens, UniProt P05089).
T1 sequence (P05089 1-322): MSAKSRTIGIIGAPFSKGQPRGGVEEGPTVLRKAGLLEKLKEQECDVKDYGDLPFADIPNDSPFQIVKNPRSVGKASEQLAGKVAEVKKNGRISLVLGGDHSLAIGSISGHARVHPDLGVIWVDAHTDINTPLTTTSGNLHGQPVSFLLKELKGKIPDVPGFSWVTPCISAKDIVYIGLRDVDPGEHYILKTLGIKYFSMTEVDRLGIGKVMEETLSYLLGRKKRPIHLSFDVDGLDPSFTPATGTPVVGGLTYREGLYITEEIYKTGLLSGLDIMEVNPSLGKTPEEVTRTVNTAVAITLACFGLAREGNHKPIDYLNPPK
Nature of the test: Inhibition of arginase I, spectrophotometric urea assay at 530 nm. It is filed as biochemical. In a few lines: (§1)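 IC50 was derived by regression of OD530 normalized to uninhibited-enzyme controls against log concentration. Urea from 60-min, 37 °C turnover of L-arginine with manganese sulfate was detected after acid o-phthaldialdehyde/primaquine quench and 10 min colour development. Arginase I and II came from 100 ng/ml stocks in pH 7.4 phosphate with ovalbumin.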

For a further test, the target named is T2, arginase II (ARG II) (Homo sapiens, UniProt P78540).
T2 sequence (P78540 23-354): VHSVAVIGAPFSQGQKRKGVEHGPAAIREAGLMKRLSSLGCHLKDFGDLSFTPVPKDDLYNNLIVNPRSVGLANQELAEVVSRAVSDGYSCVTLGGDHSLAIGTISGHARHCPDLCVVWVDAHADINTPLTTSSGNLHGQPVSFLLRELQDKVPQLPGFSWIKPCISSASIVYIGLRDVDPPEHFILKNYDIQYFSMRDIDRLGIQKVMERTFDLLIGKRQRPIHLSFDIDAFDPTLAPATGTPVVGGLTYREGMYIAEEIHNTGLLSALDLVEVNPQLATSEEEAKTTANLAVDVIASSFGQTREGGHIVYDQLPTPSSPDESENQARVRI
The test is described as follows: Inhibition of arginase II, spectrophotometric urea assay at 530 nm. It is filed as biochemical. An outline of the steps:
as §1

Where [1] appears, read: Formula I compounds, Table 2, read-out: Potency (ARG I).
Setting [2] is: Formula I compounds, Table 2, read-out: Potency (ARG II).

Among the data in US9994594B2, “Inhibitors of arginase and their therapeutic applications” (MARS, INCORPORATED, priority 2010, dated 2018) are IC50 values, retold here.

Structures can show the parent of a compound that is named as a salt. Where two headings read alike, the source gives them in different places. A value given as a limit tells only on which side of the number the result lay.

`CN(CCc1ccccc1)CC[C@](N)(CCCCB(O)O)C(=O)O` [compound 11, (R)-2-amino-6-borono-2-(2-(methyl(phenethyl)amino)ethyl) hexanoic acid dihydrochloride]: the IC50 on human arginase I (ARG I) (setting [1]) and on arginase II (ARG II) (setting [2]) was 0.1 to 250 nM in each case.

On to `CN(CC[C@](N)(CCCCB(O)O)C(=O)O)C[C@@H](O)c1cccc(O)c1` [compound 12, (R)-2-amino-6-borono-2-(2-(((S)-2-hydroxy-2-(3-hydroxyphenyl)ethyl)(methyl)amino)ethyl)hexanoic acid dihydrochloride], for which the IC50 at human arginase I (ARG I) (setting [1]) and on arginase II (ARG II) (setting [2]) was 0.1 to 250 nM each time.

For the compound `N[C@](CCCCB(O)O)(CCN1CCCCC1)C(=O)O` [compound 13, (R)-2-amino-6-borono-2-(2-(piperidin-1-yl)ethyl)hexanoic acid], the IC50 on human arginase I (ARG I) (setting [1]) was 0.1 to 250 nM; at arginase II (ARG II) (setting [2]), 251 to 1000 nM.

On to `C=CCC(N)(CCCCB(O)O)C(=O)O` (centres unmarked) [compound 14, 2-allyl-2-amino-6-boronohexanoic acid], for which the values for the IC50 on human arginase I (ARG I) (setting [1]) and on arginase II (ARG II) (setting [2]) were 43 nM and more than 5000 nM, respectively.

With `CC[C@](N)(CCCCB(O)O)C(=O)O` [compound 15, (S)-2-amino-6-borono-2-ethylhexanoic acid hydrochloride], the IC50 at human arginase I (ARG I) (setting [1]) and at arginase II (ARG II) (setting [2]) was 2000 to 5000 nM throughout.

`NC(CCCCB(O)O)(CCN1CCCC1)C(=O)O` (centres unmarked) [compound 16, 2-amino-6-borono-2-(2-(pyrrolidin-1-yl)ethyl)hexanoic acid]: the values for the IC50 on human arginase I (ARG I) (setting [1]) and at arginase II (ARG II) (setting [2]) were 251 to 1000 nM and 1000 to 2000 nM, respectively.

Regarding `NC(CCCCB(O)O)(CCN1CCN(c2ncccn2)CC1)C(=O)O` (centres unmarked) [compound 17, 2-Amino-6-borono-2-[2-(4-pyrimidin-2-yl-piperazin-1-yl)ethyl]-hexanoic acid trihydrochloride], the IC50 on human arginase I (ARG I) (setting [1]) and at arginase II (ARG II) (setting [2]) was 2000 to 5000 nM each time.

On to `CN(CCC(N)(CCCCB(O)O)C(=O)O)CC(=O)O` (centres unmarked) [compound 18, 2-amino-6-borono-2-(2-((carboxymethyl)(methyl)amino)ethyl)hexanoic acid dihydrochloride], for which the IC50 on human arginase I (ARG I) (setting [1]) and on arginase II (ARG II) (setting [2]) was 2000 to 5000 nM throughout.

Take `NC(CCCCB(O)O)(CCN(CCO)Cc1ccccc1)C(=O)O` (centres unmarked) [compound 20, 2-Amino-2-{2-[benzyl-(2-hydroxyethyl)-amino]-ethyl}-6-borono-hexanoic acid dihydrochloride]: the IC50 on human arginase I (ARG I) (setting [1]) and at arginase II (ARG II) (setting [2]) was 2000 to 5000 nM each time.

Take `NC(CCCCB(O)O)(CCN1CCC(C(=O)O)CC1)C(=O)O` (centres unmarked) [compound 21, 1-(3-amino-7-borono-3-carboxyheptyl)piperidine-4-carboxylic acid]: the IC50 at human arginase I (ARG I) (setting [1]) and at arginase II (ARG II) (setting [2]) was 1000 to 2000 nM each time.

Take `NC(CCCCB(O)O)(CCN1CCC(CO)CC1)C(=O)O` (centres unmarked) [compound 22, 2-amino-6-borono-2-(2-(4-(hydroxymethyl)piperidin-1-yl)ethyl)hexanoic acid]: the IC50 on human arginase I (ARG I) (setting [1]) and at arginase II (ARG II) (setting [2]) was 251 to 1000 nM throughout.

As for `CCN(CC)C(=O)C1CCCN(CCC(N)(CCCCB(O)O)C(=O)O)C1` (centres unmarked) [compound 23, 2-Amino-6-borono-2-[2-(3-diethylcarbamoyl-piperidin-1-yl)-ethyl]-hexanoic acid dihydrochloride], the IC50 at human arginase I (ARG I) (setting [1]) and on arginase II (ARG II) (setting [2]) was 251 to 1000 nM each time.

As to `COc1cc2c(cc1OC)CN(CCC(N)(CCCCB(O)O)C(=O)O)CC2` (centres unmarked) [compound 26, 2-Amino-6-borono-2-[2-(6,7-dimethoxy-3,4-dihydro-1H-isoquinolin-2-yl)ethyl]-hexanoic acid dihydrochloride], the IC50 on human arginase I (ARG I) (setting [1]) and on arginase II (ARG II) (setting [2]) was 251 to 1000 nM in each case.

Take `COc1ccc(CN(C)CCC(N)(CCCCB(O)O)C(=O)O)cc1` (centres unmarked) [compound 27, 2-amino-6-borono-2-(2-((4-methoxybenzyl)(methyl)amino)ethyl)hexanoic acid dihydrochloride]: the IC50 at human arginase I (ARG I) (setting [1]) and on arginase II (ARG II) (setting [2]) was 1000 to 2000 nM in each case.

For `NC(CCCCB(O)O)(CCN1CC=C(c2ccccc2)CC1)C(=O)O` (centres unmarked) [compound 28, 2-amino-6-borono-2-(2-(4-phenyl-5,6-dihydropyridin-1(2H)-yl)ethyl)hexanoic acid dihydrochloride], the IC50 at human arginase I (ARG I) (setting [1]) fell in the range of 251 to 1000 nM; at arginase II (ARG II) (setting [2]), 1000 to 2000 nM.

For `NC(CCCCB(O)O)(CCN1CCc2sccc2C1)C(=O)O` (centres unmarked) [compound 29, 2-amino-6-borono-2-(2-(6,7-dihydrothieno[3,2-c]pyridin-5(4H)-yl)ethyl)hexanoic acid dihydrochloride], the IC50 on human arginase I (ARG I) (setting [1]) lay within 251 to 1000 nM; on arginase II (ARG II) (setting [2]) it was 1000 to 2000 nM.

For the compound `NC(CCCCB(O)O)(CCN1CCc2[nH][nH]c(=O)c2C1)C(=O)O` (centres unmarked) [compound 30, 2-amino-6-borono-2-(2-(3-oxo-2,3,6,7-tetrahydro-1H-pyrazolo[4,3-c]pyridin-5(4H)-yl)ethyl)hexanoic acid dihydrochloride], the figures for the IC50 at human arginase I (ARG I) (setting [1]) and on arginase II (ARG II) (setting [2]) were 251 to 1000 nM and 1000 to 2000 nM, respectively.

As to `COc1ccc(C2=CCN(CCC(N)(CCCCB(O)O)C(=O)O)CC2)cc1` (centres unmarked) [compound 31, 2-amino-6-borono-2-(2-(4-(4-methoxyphenyl)-5,6-dihydropyridin-1(2H)-yl)ethyl)hexanoic acid dihydrochloride], the IC50 on human arginase I (ARG I) (setting [1]) and on arginase II (ARG II) (setting [2]) was 251 to 1000 nM in each case.

With `COC[C@@H]1CCCN1CCC(N)(CCCCB(O)O)C(=O)O` (stereo partly drawn) [compound 33, 2-amino-6-borono-2-(2-((S)-2-(methoxymethyl)pyrrolidin-1-yl)ethyl)hexanoic acid dihydrochloride], the IC50 at human arginase I (ARG I) (setting [1]) and on arginase II (ARG II) (setting [2]) was 251 to 1000 nM each time.

With `NC(CCCCB(O)O)(CCN1CCC(O)(Cc2ccccc2)CC1)C(=O)O` (centres unmarked) [compound 34, 2-amino-2-(2-(4-benzyl-4-hydroxypiperidin-1-yl)ethyl)-6-boronohexanoic acid dihydrochloride], the IC50 on human arginase I (ARG I) (setting [1]) fell in the range of 251 to 1000 nM; at arginase II (ARG II) (setting [2]), 1000 to 2000 nM.

In the case of `NC(CCCCB(O)O)(CCN1CCc2ccccc2C1)C(=O)O` (centres unmarked) [compound 36, 2-amino-6-borono-2-(2-(3,4-dihydroisoquinolin-2(1H)-yl)ethyl)hexanoic acid dihydrochloride], the IC50 at human arginase I (ARG I) (setting [1]) is 251 to 1000 nM; at arginase II (ARG II) (setting [2]), 1000 to 2000 nM.

For `CCN(CC)CCC(N)(CCCCB(O)O)C(=O)O` (centres unmarked) [compound 37, 2-amino-6-borono-2-(2-(diethylamino)ethyl)hexanoic acid dihydrochloride], the IC50 at human arginase I (ARG I) (setting [1]) was 251 to 1000 nM; on arginase II (ARG II) (setting [2]) it was 1000 to 2000 nM.

For `NC(CCCCB(O)O)(CCN1CCC(=O)CC1)C(=O)O` (centres unmarked) [compound 38, 2-amino-6-borono-2-(2-(4-oxopiperidin-1-yl)ethyl)hexanoic acid dihydrochloride], the IC50 at human arginase I (ARG I) (setting [1]) and at arginase II (ARG II) (setting [2]) was 2000 to 5000 nM in each case.

In the case of `NC(CCCCB(O)O)(CCN1CCC(C(F)(F)F)CC1)C(=O)O` (centres unmarked) [compound 39, 2-amino-6-borono-2-(2-(4-(trifluoromethyl)piperidin-1-yl)ethyl)hexanoic acid dihydrochloride], the IC50 at human arginase I (ARG I) (setting [1]) lay in the range of 1000 to 2000 nM; on arginase II (ARG II) (setting [2]) it was 2000 to 5000 nM.

Take `NC(CCCCB(O)O)(CCN1CCC[C@H]1CN1CCCC1)C(=O)O` (stereo partly drawn) [compound 40, 2-amino-6-borono-2-(2-((S)-2-(pyrrolidin-1-ylmethyl)pyrrolidin-1-yl)ethyl)hexanoic acid trihydrochloride]: the results for the IC50 on human arginase I (ARG I) (setting [1]) and on arginase II (ARG II) (setting [2]) were 1000 to 2000 nM and 2000 to 5000 nM, respectively.

Consider `COC1CCN(CCC(N)(CCCCB(O)O)C(=O)O)CC1` (centres unmarked) [compound 41, 2-amino-6-borono-2-(2-(4-methoxypiperidin-1-yl)ethyl)hexanoic acid dihydrochloride], for which the IC50 lay in the range of 1000 to 2000 nM on human arginase I (ARG I) (setting [1]) and 2000 to 5000 nM at arginase II (ARG II) (setting [2]).

For the compound `NC(CCCCB(O)O)(CCN1CCCC1c1cc2ccccc2o1)C(=O)O` (centres unmarked) [compound 42, 2-amino-2-(2-(2-(benzofuran-2-yl)pyrrolidin-1-yl)ethyl)-6-boronohexanoic acid dihydrochloride], the IC50 on human arginase I (ARG I) (setting [1]) and on arginase II (ARG II) (setting [2]) was 2000 to 5000 nM in each case.

As for `CN(CCO)CCC(N)(CCCCB(O)O)C(=O)O` (centres unmarked) [compound 43, 2-amino-6-borono-2-(2-((2-hydroxyethyl)(methyl)amino)ethyl)hexanoic acid dihydrochloride], the values for the IC50 at human arginase I (ARG I) (setting [1]) and on arginase II (ARG II) (setting [2]) were 1000 to 2000 nM and 2000 to 5000 nM, respectively.

As for `NC(CCCCB(O)O)(CCN1CCC(F)(F)C1)C(=O)O` (centres unmarked) [compound 44, 2-amino-6-borono-2-(2-(3,3-difluoropyrrolidin-1-yl)ethyl)hexanoic acid dihydrochloride], the IC50 at human arginase I (ARG I) (setting [1]) and at arginase II (ARG II) (setting [2]) was more than 5000 nM throughout.

Take `CC(=O)C1(c2ccccc2)CCN(CCC(N)(CCCCB(O)O)C(=O)O)CC1` (centres unmarked) [compound 45, 2-(2-(4-acetyl-4-phenylpiperidin-1-yl)ethyl)-2-amino-6-boronohexanoic acid dihydrochloride]: the figures for the IC50 on human arginase I (ARG I) and against arginase II (ARG II) were 1000 to 2000 nM and 2000 to 5000 nM, respectively.

As to `NC(CCCCB(O)O)(CCN1CCC[C@@H]1C(F)(F)F)C(=O)O` (stereo partly drawn) [compound 46, 2-amino-6-borono-2-(2-((R)-2-(trifluoromethyl)pyrrolidin-1-yl)ethyl)hexanoic acid dihydrochloride], the IC50 at human arginase I (ARG I) (setting [1]) and at arginase II (ARG II) (setting [2]) was more than 5000 nM throughout.
